Assay: solvent given as SMILES

CCC(C)(C)OC
Details | solvation free energy, 298 K [kcal/mol]
in CC(=O)N(C)C | -3.92
in CC(C)(C)O | -4.22
in CC(C)CC(C)(C)C | -4.24
in CCCCCC | -4.47
in CCCCCCC | -4.24
in CCCCCCCCCC | -4.16
in CCCCCCCCO | -4.07
in CCCCN(C=O)CCCC | -4.11
in CCN1CCCC1=O | -3.85
in CCN(CC)C(C)=O | -4.04
in CCNC(C)=O | -3.86
in CCNC=O | -3.79
in CN1CCCCC1=O | -3.86
in CN(C)C=O | -3.78
in CNC(C)=O | -3.75
in CNC=O | -3.62
in CO | -4.26
in O | -1.77

CC(=O)c1ccc(C)cc1
Details | solvation free energy, 298 K [kcal/mol]
in O | -4.7

Nc1ccc(S(=O)(=O)Nc2nccs2)cc1
Details | solvation free energy, 298 K [kcal/mol]
in O | -18.2

Clc1cc(Cl)c(-c2cc(Cl)c(Cl)c(Cl)c2Cl)cc1Cl
Details | solvation free energy, 298 K [kcal/mol]
in CCCCCCCCO | -13.9
in O | -3.53

CCc1cccc(CC)c1N(COC)C(=O)CCl
Details | solvation free energy, 298 K [kcal/mol]
in O | -8.21

CCc1ccccc1C
Details | solvation free energy, 298 K [kcal/mol]
in O | -0.95

CCCCC1CCCCC1
Details | solvation free energy, 298 K [kcal/mol]
in CCC(C)=O | -5.97
in CCO | -5.65
in CN1CCCC1=O | -5.09
in O | 1.96
in O=Cc1ccco1 | -4.97
in OCCO | -2.38
in OCCOCCO | -3.78

CC(O)CC(C)(C)C (stereo not drawn)
Details | solvation free energy, 298 K [kcal/mol]
in CCCCCCCC | -5.41
in CCCCCCCCCC | -5.33

NC(=O)c1ccccc1
Details | solvation free energy, 298 K [kcal/mol]
in O | -11

Oc1cccc(O)c1
Details | solvation free energy, 298 K [kcal/mol]
in CCCCCC | -5.78
in CCCCCCC | -5.84
in CCCCCCCC | -5.85
in Cc1ccc(C)cc1 | -8.35
in Cc1cccc(C)c1 | -8.33
in Cc1ccccc1C | -8.33
in O | -11.4

CCCCC(=O)CC(C)=O
Details | solvation free energy, 298 K [kcal/mol]
in O | -4.28

CCCOCCOC(=O)c1ccccc1C(=O)OCCOCCC
Details | solvation free energy, 298 K [kcal/mol]
in O | -13.2

Oc1ccccc1F
Details | solvation free energy, 298 K [kcal/mol]
in CC(C)CC(C)(C)C | -4.58
in CCCCCC | -4.69
in CCCCCCC | -4.7
in CCCCCCCC | -4.52
in CCCCCCCCCC | -4.58
in Cc1ccc(C)cc1 | -5.86
in Cc1cccc(C)c1 | -5.89
in Cc1ccccc1C | -5.96
in O | -5.29

CCCCCC(=O)CC(C)=O
Details | solvation free energy, 298 K [kcal/mol]
in O | -4.3

OCc1ccccc1O
Details | solvation free energy, 298 K [kcal/mol]
in O | -10.2

NC(=O)c1ccccc1O
Details | solvation free energy, 298 K [kcal/mol]
in C1CCOC1 | -13.2
in C1COCCO1 | -13
in CC(C)(C)O | -12.1
in CC(C)=O | -13
in CC(C)CCO | -11.9
in CC(C)CO | -11.9
in CC(C)O | -12.2
in CC(C)OCCO | -12.8
in CC(O)COC(C)(C)C | -12.6
in CCC(C)O | -12.2
in CCCC(C)O | -12.1
in CCCCCCCCCCO | -11.6
in CCCCCCCCO | -11.7
in CCCCCCCO | -11.8
in CCCCCCO | -12
in CCCCCO | -12
in CCCCO | -12.1
in CCCCOC(C)=O | -12.3
in CCCCOCCCC | -10.5
in CCCCOCCO | -12.6
in CCCO | -12.3
in CCCOC(C)=O | -12.4
in CCCOCCO | -12.8
in CCO | -12.5
in CCOC(C)=O | -12.6
in CCOCCO | -13
in CO | -12.7
in COC(C)=O | -12.8
in COC(C)CCO | -12.7
in Fc1ccccc1 | -10.6
in O | -10.4

Clc1ccc2c(c1)Oc1ccccc1O2
Details | solvation free energy, 298 K [kcal/mol]
in O | -3.1

Clc1cc2c(cc1Cl)Oc1ccccc1O2
Details | solvation free energy, 298 K [kcal/mol]
in O | -3.56

Clc1cccc(Cl)c1
Details | solvation free energy, 298 K [kcal/mol]
in CCCCCC | -6.18
in CCCCCCCCO | -5.63
in O | -1.05

CC(=O)CC(=O)c1ccc(F)c(F)c1F
Details | solvation free energy, 298 K [kcal/mol]
in O | -5.07

C#CCC
Details | solvation free energy, 298 K [kcal/mol]
in C1COCCO1 | -3
in CC(C)=O | -2.99
in CC(C)CC(C)(C)C | -2.36
in CN(C)C=O | -2.92
in COC(C)=O | -3.03
in O | -0.16

C=CC(C)CCCC(C)CCCC(C)CCCC(C)C (stereo not drawn)
Details | solvation free energy, 298 K [kcal/mol]
in O | 3.75

CC(=O)CC(C)C
Details | solvation free energy, 298 K [kcal/mol]
in C1COCCO1 | -5.32
in CC(=O)N(C)C | -5.24
in CCCCCCCC | -4.34
in CCCCN(C=O)CCCC | -5.03
in CCOP(=O)(OCC)OCC | -4.94
in CN1CCCC1=O | -5.14
in CN1CCCCC1=O | -5.12
in CN1CCN(C)C1=O | -4.91
in CNC(C)=O | -4.82
in NC=O | -4.19
in O | -3.06
in O=CN1CCOCC1 | -4.62
in OCCOCCO | -4.21

Cc1cccc2ccccc12
Details | solvation free energy, 298 K [kcal/mol]
in CCO | -7.47
in O | -2.32
in OCCOCCO | -7.33

FC(F)(F)CCl
Details | solvation free energy, 298 K [kcal/mol]
in CCCCCCCC(=O)OCC(COC(=O)CCCCCCC)OC(=O)CCCCCCC | -2.41
in O | 0.06

O=c1[nH]c2ccccc2n1C1CCN(CCCC(c2ccc(F)cc2)c2ccc(F)cc2)CC1
Details | solvation free energy, 298 K [kcal/mol]
in C1COCCO1 | -27.7
in CC(C)O | -26.4
in CCCCCCCCO | -26.7
in CCCCCCCO | -26.8
in CCCCCCO | -26.7
in CCCCCO | -26.8
in CCCCO | -26.7
in CCCO | -26.6
in CCO | -26.6
in CCOC(C)=O | -26.6
in CO | -26.6

Oc1cccc2cccnc12
Details | solvation free energy, 298 K [kcal/mol]
in O | -6.06

Oc1ccc(F)cc1
Details | solvation free energy, 298 K [kcal/mol]
in O | -6.19

FC(F)(Cl)Cl
Details | solvation free energy, 298 K [kcal/mol]
in CCCCCCC | -1.8
in CCCCCCCC | -1.76
in CCCCCCCC(=O)OCC(COC(=O)CCCCCCC)OC(=O)CCCCCCC | -1.36
in CCCCCCCCC | -1.68
in CCCCCCCCO | -1.34
in ClC(Cl)(Cl)Cl | -1.92

O=c1[nH]cc(C(F)(F)F)c(=O)[nH]1
Details | solvation free energy, 298 K [kcal/mol]
in O | -15.5

CC(C)C(C)C(C)C
Details | solvation free energy, 298 K [kcal/mol]
in Brc1ccccc1 | -4.64
in C1CCCCC1 | -5.1
in C1CCOC1 | -4.92
in C1COCCO1 | -4.17
in C=CCCCC | -5
in C=CCCCCCC | -4.92
in C=CCCCCCCCC | -4.84
in CC1COC(=O)O1 | -2.86
in CC#N | -3.46
in CC(=O)N(C)C | -3.7
in CC(=O)O | -3.77
in CC(=O)c1ccccc1 | -3.96
in CC(C)=O | -4.14
in CC(C)CC(C)(C)C | -4.9
in CC(C)CCCC(C)CCCC(C)CCCCC(C)CCCC(C)CCCC(C)C | -4.48
in CC(C)CCO | -4.31
in CC(C)O | -4.09
in CC(C)OC(C)C | -4.9
in CCBr | -5.01
in CCC#N | -3.86
in CCC(C)=O | -4.39
in CCCC#N | -4.14
in CCCC(=O)OCC | -4.61
in CCCC(C)=O | -4.49
in CCCCC | -5.05
in CCCCCC | -5.03
in CCCCCC(C)=O | -4.51
in CCCCCCC | -4.98
in CCCCCCCC | -4.91
in CCCCCCCCC | -4.87
in CCCCCCCCCC | -4.84
in CCCCCCCCCCCC | -4.74
in CCCCCCCCCCCCCCCC | -4.66
in CCCCCCCCO | -4.33
in CCCCCCOC(C)=O | -4.59
in CCCCO | -4.23
in CCCCOC(C)=O | -4.56
in CCCCOCCCC | -4.88
in CCCO | -4.1
in CCN(CC)CC | -4.98
in CCO | -4.02
in CCOC(C)=O | -4.41
in CCOCC | -4.96
in CCOCCOCCOCC | -4.33
in CCOc1ccccc1 | -4.42
in CN1CCCC1=O | -3.6
in CN(C)C=O | -3.53
in CN(C)P(=O)(N(C)C)N(C)C | -3.97
in CNC=O | -3.19
in CO | -3.64
in COC(C)=O | -4.22
in COCCO | -3.52
in COc1ccccc1 | -4.35
in CS(C)=O | -2.63
in Cc1ccc(C)cc1 | -4.85
in Cc1ccccc1 | -4.85
in Cc1ccccn1 | -4.45
in ClC(Cl)(Cl)Cl | -5.09
in ClC(Cl)Cl | -4.98
in ClCCCl | -4.4
in ClCCl | -4.74
in Clc1ccccc1 | -4.84
in FC(F)(F)C(F)(F)C(F)(F)C(F)(F)C(F)(F)C(F)(F)C(F)(F)C(F)(F)F | -3.34
in FC(F)(F)C(F)(F)C(F)(F)C(F)(F)C(F)(F)C(F)(F)F | -3.4
in Fc1ccccc1 | -4.75
in ICI | -2.94
in N#Cc1ccccc1 | -4.01
in Nc1ccccc1 | -3.27
in O | 2.57
in O=C1CCCCC1 | -4.32
in O=C1CCCO1 | -3.01
in OCc1ccccc1 | -3.52
in S=C=S | -5.06
in c1ccccc1 | -4.83
in c1ccncc1 | -4.17

Clc1ccc(Cl)c(Cl)c1Cl
Details | solvation free energy, 298 K [kcal/mol]
in CCCCCCCCC=CCCCCCCCC(=O)OCC(COC(=O)CCCCCCCC=CCCCCCCCC)OC(=O)CCCCCCCC=CCCCCCCCC | -7.82
in CCCCCCCCO | -7.69
in O | -1.34

O=C(O)CCCCc1ccccc1
Details | solvation free energy, 298 K [kcal/mol]
in O | -8.68

CC(C)OC=O
Details | solvation free energy, 298 K [kcal/mol]
in O | -2.02

O=C(c1ccccc1)N(O)c1ccccc1
Details | solvation free energy, 298 K [kcal/mol]
in O | -11.3

O=c1[nH]cc(Cl)c(=O)[nH]1
Details | solvation free energy, 298 K [kcal/mol]
in O | -17.7

Source: the CombiSolv-Exp solvation set (Vermeire and Green 2021)
